For one series, the target named is T1, PI3K beta (Homo sapiens, UniProt P42338).
T1 construct: for the full-length p110-b subunit are generated and fused by overlapping PCR; p85(iSH2) fusion partner (see partner chain) (N); His tag (C); made in house; host or cells: baculovirus; Tn5 (Trichoplusia ni) or TiniPro insect cells
Kind of series: PI3K beta kinase assay (Kinase-Glo luminescence). The series is classed as biochemical. A digest of the protocol:
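Enzyme: BV949 p85(iSH2)-Gly linker-p110β FL-His, 25 nM. Substrate: PI 10 μg/mL. ATP: 1 μM, added to start. Buffer: Tris pH 7.5 10 mM, MgCl2 3 mM, NaCl 50 mM, CHAPS 0.05%, DTT 1 mM. RT, 60 min. Readout: Kinase-Glo. IC50 by 4-parameter fit.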

A further series deals with T2, mTOR (Homo sapiens, UniProt P42345).
T2 construct: purchased Invitrogen Corporation (Carlsbad/CA, USA) PV4753
Kind of series: Biochemical assay for m-TOR by TR-FRET. The conditions noted are these: 8 μM ATP, 400 nM GFP-4EBP1, 0.5 nM mTOR. The procedure, abridged:
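Steps: ATP (8 μM final) plus GFP-4EBP1 (400 nM final) combined with mTOR (0.5 nM final), incubated at rt; buffer HEPES pH 7.5 with 10 mM MnCl2, NaCl, EGTA, DTT. Then stopped with EDTA/Tb3+-anti-p4EBP1 pT46 Ab (0.5 nM). Plates read after 15 min.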

In the next series the target is T3, PI3K delta (Homo sapiens, UniProt O00329).
T3 construct: for the full-length p110-d subunit are generated and fused by overlapping PCR; p85(iSH2) fusion partner (see partner chain) (N); His tag (C); made in house; host or cells: baculovirus; Tn5 (Trichoplusia ni) or TiniPro insect cells
Kind of series: PI3K delta kinase assay (Kinase-Glo luminescence). The series is classed as biochemical. A digest of the protocol:
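Kinase-Glo luminescence read-out of ATP remaining after 60 min at RT. Enzyme: 10 nM BV1060 (p85 iSH2–p110δ fusion, His-tagged); substrate 10 μg/mL PI, ATP 1 μM final; Tris pH 7.5 buffer with MgCl2, NaCl, CHAPS, DTT. IC50 from 4-parameter logistic fit over 8 concentrations.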
(In general: Kinase-Glo measures the ATP left after a reaction by luminescence.)

The nature of the next series: Solubility at pH 6.8. The series is classed as physicochemical. The following applies: pH 6.8, aqueous buffer, thermodynamic from solid; read-out: solubility. A digest of the protocol:
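Solubility was measured at pH 6.8 following the cited Zhou et al. (2007) procedure.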

A word on the IC50: it is the concentration that inhibits the measured activity by half. In general, solubility refers to the dissolved amount per volume that the medium holds.

Converted amounts (≈) assume the structure as drawn.

T1 sequence (P42338 with tags, fused parts or gaps limits assumed): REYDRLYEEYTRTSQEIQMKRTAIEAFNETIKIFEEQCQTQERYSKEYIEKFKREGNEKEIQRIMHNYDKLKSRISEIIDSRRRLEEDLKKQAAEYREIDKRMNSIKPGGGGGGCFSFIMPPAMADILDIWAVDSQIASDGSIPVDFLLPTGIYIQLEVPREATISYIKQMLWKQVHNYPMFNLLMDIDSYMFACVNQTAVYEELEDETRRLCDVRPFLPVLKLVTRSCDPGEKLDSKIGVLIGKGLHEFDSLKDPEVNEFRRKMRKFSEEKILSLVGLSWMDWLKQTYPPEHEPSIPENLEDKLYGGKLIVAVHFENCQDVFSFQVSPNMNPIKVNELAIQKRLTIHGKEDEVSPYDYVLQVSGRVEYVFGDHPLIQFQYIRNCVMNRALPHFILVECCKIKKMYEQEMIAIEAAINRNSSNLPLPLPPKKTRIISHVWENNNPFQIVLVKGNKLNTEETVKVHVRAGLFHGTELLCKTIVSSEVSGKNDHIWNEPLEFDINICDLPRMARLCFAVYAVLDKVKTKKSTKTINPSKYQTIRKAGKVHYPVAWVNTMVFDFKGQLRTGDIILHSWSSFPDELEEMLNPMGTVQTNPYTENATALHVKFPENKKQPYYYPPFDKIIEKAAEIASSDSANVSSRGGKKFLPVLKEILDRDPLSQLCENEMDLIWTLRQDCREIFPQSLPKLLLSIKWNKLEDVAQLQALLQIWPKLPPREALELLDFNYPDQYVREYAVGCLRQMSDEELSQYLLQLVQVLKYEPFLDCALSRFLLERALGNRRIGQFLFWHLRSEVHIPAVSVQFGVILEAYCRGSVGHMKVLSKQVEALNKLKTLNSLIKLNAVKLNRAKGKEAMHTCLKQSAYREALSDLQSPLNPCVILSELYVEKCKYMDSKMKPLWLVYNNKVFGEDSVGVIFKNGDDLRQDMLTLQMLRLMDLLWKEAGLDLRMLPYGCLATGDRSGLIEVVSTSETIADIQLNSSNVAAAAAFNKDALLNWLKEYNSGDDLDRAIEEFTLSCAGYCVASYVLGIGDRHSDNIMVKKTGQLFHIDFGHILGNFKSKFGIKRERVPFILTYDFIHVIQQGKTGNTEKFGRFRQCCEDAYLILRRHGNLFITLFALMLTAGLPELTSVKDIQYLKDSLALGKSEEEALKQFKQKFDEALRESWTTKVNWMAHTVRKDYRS
T2 sequence (P42345 1360-2549 limits assumed): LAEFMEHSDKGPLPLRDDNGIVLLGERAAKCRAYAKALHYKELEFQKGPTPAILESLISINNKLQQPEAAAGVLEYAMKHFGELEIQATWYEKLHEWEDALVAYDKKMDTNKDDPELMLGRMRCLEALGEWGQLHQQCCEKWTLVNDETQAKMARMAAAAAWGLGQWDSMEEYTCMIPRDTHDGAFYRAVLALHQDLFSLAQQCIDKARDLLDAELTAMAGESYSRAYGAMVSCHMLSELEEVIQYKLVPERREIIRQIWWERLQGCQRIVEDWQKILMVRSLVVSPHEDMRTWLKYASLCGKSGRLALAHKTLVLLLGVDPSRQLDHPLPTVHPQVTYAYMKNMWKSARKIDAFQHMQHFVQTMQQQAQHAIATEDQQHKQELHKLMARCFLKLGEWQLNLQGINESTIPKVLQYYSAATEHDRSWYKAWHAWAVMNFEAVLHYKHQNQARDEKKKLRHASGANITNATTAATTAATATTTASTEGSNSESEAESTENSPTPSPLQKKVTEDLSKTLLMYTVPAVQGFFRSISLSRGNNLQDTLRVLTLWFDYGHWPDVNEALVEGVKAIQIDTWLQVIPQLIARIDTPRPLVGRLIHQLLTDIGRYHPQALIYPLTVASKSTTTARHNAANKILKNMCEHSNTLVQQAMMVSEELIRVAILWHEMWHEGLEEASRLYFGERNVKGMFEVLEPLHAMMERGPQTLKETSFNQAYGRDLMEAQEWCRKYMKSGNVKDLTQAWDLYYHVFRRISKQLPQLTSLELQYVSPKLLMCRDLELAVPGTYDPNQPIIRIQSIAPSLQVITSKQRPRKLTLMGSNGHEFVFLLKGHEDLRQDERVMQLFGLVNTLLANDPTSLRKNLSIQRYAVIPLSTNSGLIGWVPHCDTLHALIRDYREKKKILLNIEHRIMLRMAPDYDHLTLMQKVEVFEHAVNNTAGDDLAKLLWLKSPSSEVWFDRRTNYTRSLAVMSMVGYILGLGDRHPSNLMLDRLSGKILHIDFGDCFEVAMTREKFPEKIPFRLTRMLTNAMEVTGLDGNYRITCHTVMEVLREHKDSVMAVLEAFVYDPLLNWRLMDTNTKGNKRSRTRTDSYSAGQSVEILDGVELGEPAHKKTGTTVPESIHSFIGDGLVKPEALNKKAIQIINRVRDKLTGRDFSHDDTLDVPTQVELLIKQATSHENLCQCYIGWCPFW
T3 sequence (O00329 with tags, fused parts or gaps limits assumed): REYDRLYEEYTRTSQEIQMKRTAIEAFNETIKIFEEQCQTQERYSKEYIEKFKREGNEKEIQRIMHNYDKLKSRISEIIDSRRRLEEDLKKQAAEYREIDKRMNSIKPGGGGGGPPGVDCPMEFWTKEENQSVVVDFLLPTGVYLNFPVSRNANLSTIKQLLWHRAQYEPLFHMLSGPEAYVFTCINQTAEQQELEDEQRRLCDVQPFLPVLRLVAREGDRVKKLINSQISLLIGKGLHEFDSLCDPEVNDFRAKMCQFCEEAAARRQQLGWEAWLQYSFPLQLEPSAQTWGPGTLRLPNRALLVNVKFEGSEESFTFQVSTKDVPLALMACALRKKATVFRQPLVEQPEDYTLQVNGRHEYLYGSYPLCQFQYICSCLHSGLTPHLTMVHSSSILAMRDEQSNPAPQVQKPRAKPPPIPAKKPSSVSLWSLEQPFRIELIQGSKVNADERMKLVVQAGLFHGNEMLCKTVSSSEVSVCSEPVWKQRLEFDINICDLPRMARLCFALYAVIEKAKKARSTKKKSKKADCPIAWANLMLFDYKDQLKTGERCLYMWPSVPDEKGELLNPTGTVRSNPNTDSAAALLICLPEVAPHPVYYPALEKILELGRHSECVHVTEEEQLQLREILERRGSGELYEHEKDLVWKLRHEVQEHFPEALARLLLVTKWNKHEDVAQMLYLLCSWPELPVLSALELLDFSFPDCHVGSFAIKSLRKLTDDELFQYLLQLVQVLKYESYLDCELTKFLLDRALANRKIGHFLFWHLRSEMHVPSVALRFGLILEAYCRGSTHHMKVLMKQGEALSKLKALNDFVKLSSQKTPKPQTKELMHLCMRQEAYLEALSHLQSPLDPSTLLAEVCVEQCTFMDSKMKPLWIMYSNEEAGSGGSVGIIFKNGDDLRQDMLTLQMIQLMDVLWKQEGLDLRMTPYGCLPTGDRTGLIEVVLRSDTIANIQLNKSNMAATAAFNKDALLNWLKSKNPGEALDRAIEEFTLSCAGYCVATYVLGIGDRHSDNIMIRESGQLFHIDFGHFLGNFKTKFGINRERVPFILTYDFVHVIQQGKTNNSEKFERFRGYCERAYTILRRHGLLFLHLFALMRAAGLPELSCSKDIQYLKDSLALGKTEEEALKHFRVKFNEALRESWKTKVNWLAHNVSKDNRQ

Turning to `Cc1nn(C)c(C)c1-n1c(=O)n(C)c2cnc3ccc(-c4cnc(N)c(Cl)c4)cc3c21` [Example 148.1, 8-(6-Amino-5-chloro-pyridin-3-yl)-3-methyl-1-(1,3,5-trimethyl-1H-pyrazol-4-yl)-1,3-dihydro-imidazo[4,5-c]quinolin-2-one], the 50% inhibitory concentration (IC50) at PI3K beta was 51 nM; on mTOR, 95 nM; at PI3K delta, 21 nM. The solubility in the series “Solubility at pH 6.8” is 92 µg/mL (≈ 212 µM).

On to `Cc1ncc(-c2ccc3ncc4c(c3c2)n(-c2cn(C)nc2C)c(=O)n4C)cc1NS(C)(=O)=O` [Example 76, N-{5-[1-(1,3-Dimethyl-1H-pyrazol-4-yl)-3-methyl-2-oxo-2,3-dihydro-1H-imidazo[4,5-c]quinolin-8-yl]-2-methyl-pyridin-3-yl}-methanesulfonamide], for which the IC50 at PI3K beta was 10 nM; on mTOR, 5 nM; at PI3K delta it was 3 nM. Further, the solubility in the series “Solubility at pH 6.8” turned out to be 13 µg/mL (≈ 27.2 µM).

Take `CCOc1ncc(-c2ccc3ncc4c(c3c2)n(-c2cn(C)nc2C)c(=O)n4C)cc1N(C)C(C)=O` [Example 63, N-{5-[1-(1,3-Dimethyl-1H-pyrazol-4-yl)-3-methyl-2-oxo-2,3-dihydro-1H-imidazo[4,5-c]quinolin-8-yl]-2-ethoxy-pyridin-3-yl}-N-methyl-acetamide]: the concentration for half-maximal inhibition (IC50) on PI3K beta worked out at 110 nM; on mTOR, 306 nM; on PI3K delta it was 20 nM. In addition, the solubility in “Solubility at pH 6.8” is above 486 µg/mL.

For `CNc1ncc(-c2ccc3ncc4c(c3c2)n(-c2c(C)nn(C)c2C)c(=O)n4C)cc1C(F)(F)F` [Example 144.1, 3-Methyl-8-(6-methylamino-5-trifluoromethyl-pyridin-3-yl)-1-(1,3,5-trimethyl-1H-pyrazol-4-yl)-1,3-dihydro-imidazo[4,5-c]quinolin-2-one], the half-maximal inhibitory concentration (IC50) was 80 nM on PI3K beta, 274 nM at mTOR and 13 nM at PI3K delta. In “Solubility at pH 6.8”, the solubility is above 481 µg/mL.

As for `CNc1cncc(-c2ccc3ncc4c(c3c2)n(-c2cn(C(C)C)nc2C)c(=O)n4C)c1` [Example 180.2, 1-(1-Isopropyl-3-methyl-1H-pyrazol-4-yl)-3-methyl-8-(5-methylamino-pyridin-3-yl)-1,3-dihydro-imidazo[4,5-c]quinolin-2-one], the figures for the IC50 on PI3K beta, at mTOR and on PI3K delta were 42 nM, below 3 nM and 6 nM, respectively. Moreover, in the series “Solubility at pH 6.8”, the solubility came out at 10 µg/mL (≈ 23.4 µM).

`Cc1nn(C)cc1-n1c(=O)n(C)c2cnc3ccc(-c4cncc(N(C)C(C)C)c4)cc3c21` [Example 173, 1-(1,3-Dimethyl-1H-pyrazol-4-yl)-8-[5-(isopropyl-methyl-amino)-pyridin-3-yl]-3-methyl-1,3-dihydro-imidazo[4,5-c]quinolin-2-one]: the IC50 at PI3K beta was 148 nM; on mTOR, 4 nM; at PI3K delta, 37 nM. Further, the solubility in the series “Solubility at pH 6.8” came to 8 µg/mL (≈ 18.1 µM).

On to `COc1ccc(-c2ccc3ncc4c(c3c2)n(-c2cc(C)nn2C)c(=O)n4C)cc1OC` [Example 1.4, 8-(3,4-Dimethoxy-phenyl)-1-(2,5-dimethyl-2H-pyrazol-3-yl)-3-methyl-1,3-dihydro-imidazo[4,5-c]quinolin-2-one], for which the values for the half-maximal inhibitory concentration (IC50) at PI3K beta, at mTOR and at PI3K delta were 378 nM, 87 nM and 83 nM, respectively. Also, in the series “Solubility at pH 6.8”, the solubility was 4 µg/mL (≈ 9.31 µM).

Take `CCNc1cc(-c2ccc3ncc4c(c3c2)n(-c2cn(CC)nc2C)c(=O)n4C)cnc1C` [Example 87.3, 8-(5-Ethylamino-6-methyl-pyridin-3-yl)-1-(1-ethyl-3-methyl-1H-pyrazol-4-yl)-3-methyl-1,3-dihydro-imidazo[4,5-c]quinolin-2-one]: the IC50 at PI3K beta was 12 nM; on mTOR it was below 3 nM; on PI3K delta it was 6 nM. For the same molecule, the solubility in the series “Solubility at pH 6.8” was above 442 µg/mL.

`Cc1nn(C)cc1-n1c(=O)n(C)c2cnc3ccc(-c4cnc(CO)c(OC(CF)CF)c4)cc3c21` [Example 192, 1-(1,3-Dimethyl-1H-pyrazol-4-yl)-8-[5-(2-fluoro-1-fluoromethyl-ethoxy)-6-hydroxymethyl-pyridin-3-yl]-3-methyl-1,3-dihydro-imidazo[4,5-c]quinolin-2-one]: the IC50 at PI3K beta was 6 nM; at mTOR, 6 nM; at PI3K delta it was 5 nM. Further, the solubility in the series “Solubility at pH 6.8” was found to be 27 µg/mL (≈ 54.6 µM).

Consider `COCc1ccc(-c2ccc3ncc4c(c3c2)n(-c2cn(C(C)C)nc2C)c(=O)n4C)cn1` [Example 105, 1-(1-Isopropyl-3-methyl-1H-pyrazol-4-yl)-8-(6-methoxymethyl-pyridin-3-yl)-3-methyl-1,3-dihydro-imidazo[4,5-c]quinolin-2-one], for which the half-inhibitory concentration (IC50) is 163 nM on PI3K beta, 95 nM at mTOR and 52 nM on PI3K delta. For the same molecule, the solubility in the series “Solubility at pH 6.8” was above 443 µg/mL.

The record behind these values is patent publication US20140005163A1 (NOVARTIS AG, priority 2010, published 2014).
